In ChEMBL document CHEMBL1201862, “PubChem BioAssay data set” (2004):
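96-well plates; 48 h exposure; 5 concentrations. Endpoints by linear interpolation between flanking doses. Not reached: highest tested concentration assigned. Abbreviation: GI50, concentration required for 50% inhibition of growth.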 Active and inactive are the calls of the source. No stated cut-off is given here; in the data, active = GI50 up to about 1.1 µM and inactive = higher.

Legend:
Experiment in all cases: inhibition of tumour cell growth, NCI panel, 48 h
786-0 = tested on: 786-0
A498 = tested on: A498
A549 = tested on: A549
ACHN = tested on: ACHN
CAKI-1 = tested on: CAKI-1
CCRF-CEM = tested on: CCRF-CEM
COLO 205 = tested on: COLO 205
DLD-1 = tested on: DLD-1
DMS-114 = tested on: DMS-114
EKVX = tested on: EKVX
HCC 2998 = tested on: HCC 2998
HCT-15 = tested on: HCT-15
HL-60 = tested on: HL-60
HOP-62 = tested on: HOP-62
HOP-92 = tested on: HOP-92
HT-29 = tested on: HT-29
IGROV-1 = tested on: IGROV-1
K562 = tested on: K562
KM-20L2 = tested on: KM-20L2
KM12 = tested on: KM12
LOX IMVI = tested on: LOX IMVI
LXFL 529 = tested on: LXFL 529
M14 = tested on: M14
M19-MEL = tested on: M19-MEL
MOLT-4 = tested on: MOLT-4
Malme-3M = tested on: Malme-3M
NCI-H226 = tested on: NCI-H226
NCI-H23 = tested on: NCI-H23
NCI-H460 = tested on: NCI-H460
NCI-H522 = tested on: NCI-H522
OVCAR-3 = tested on: OVCAR-3
OVCAR-4 = tested on: OVCAR-4
OVCAR-5 = tested on: OVCAR-5
OVCAR-8 = tested on: OVCAR-8
RPMI-8226 = tested on: RPMI-8226
RXF 393 = tested on: RXF 393
SF-268 = tested on: SF-268
SF-295 = tested on: SF-295
SF-539 = tested on: SF-539
SK-MEL-28 = tested on: SK-MEL-28
SK-MEL-2 = tested on: SK-MEL-2
SK-MEL-5 = tested on: SK-MEL-5
SK-OV-3 = tested on: SK-OV-3
SN12C = tested on: SN12C
SNB-75 = tested on: SNB-75
SNB-78 = tested on: SNB-78
SW-620 = tested on: SW-620
TK-10 = tested on: TK-10
U-251 = tested on: U-251
UACC-257 = tested on: UACC-257
UACC-62 = tested on: UACC-62
UO-31 = tested on: UO-31
XF498 = tested on: XF498

Measured: GI50

CC12CCC(=O)N1c1cccnc1N2 (stereo not drawn)
inactive: 786-0 > 100 µM | A498 > 100 µM | A549 > 100 µM | ACHN > 100 µM | CAKI-1 > 100 µM | CCRF-CEM > 100 µM | COLO 205 > 100 µM | DLD-1 > 100 µM | DMS-114 > 100 µM | EKVX > 100 µM | HCC 2998 > 100 µM | HL-60 > 100 µM | HOP-62 > 100 µM | HOP-92 > 100 µM | HT-29 > 100 µM | IGROV-1 > 100 µM | K562 > 100 µM | KM-20L2 > 100 µM | KM12 > 100 µM | LOX IMVI > 100 µM | LXFL 529 > 100 µM | M14 > 100 µM | M19-MEL > 100 µM | MOLT-4 > 100 µM | Malme-3M > 100 µM | NCI-H226 > 100 µM | NCI-H23 > 100 µM | NCI-H460 > 100 µM | NCI-H522 > 100 µM | OVCAR-3 > 100 µM | OVCAR-4 > 100 µM | OVCAR-5 > 100 µM | OVCAR-8 > 100 µM | RPMI-8226 > 100 µM | RXF 393 > 100 µM | SF-268 > 100 µM | SF-295 > 100 µM | SF-539 > 100 µM | SK-MEL-28 > 100 µM | SK-MEL-2 > 100 µM | SK-MEL-5 > 100 µM | SK-OV-3 > 100 µM | SN12C > 100 µM | SNB-75 > 100 µM | SNB-78 > 100 µM | SW-620 > 100 µM | TK-10 > 100 µM | U-251 > 100 µM | UACC-257 > 100 µM | UACC-62 > 100 µM | UO-31 > 100 µM | XF498 > 100 µM
> 100 µM: HCT-15
